In patent US5723494A, “Derivatives of glutamic and aspartic acids, a method of preparing them, and their use as drugs for enhancing memory and learning” (priority 1993, dated 1998):
Blank lines part the entries; values can stand above or below the compound they belong to.

Experiments:
[1] = Antidepressant activity in the behavioural despair test in the mouse; assay type: in vivo, mouse (male CD1); conditions: for inhibition in vivo at 3 mg/kg: 3 mg/kg IP; for inhibition in vivo at 10 mg/kg: 10 mg/kg IP; for ED50: IP, read-out: ED50 (dose antagonising immobility time by 50%)
From the text: 5) Antidepressant activity in the "behavioural despair test" Another interesting aspect of the pharmacological activity of these products is the potent antidepressant activity which some of them display in an experimental model in the mouse, in which a state of depression is induced experimentally by the method of Porsolt et al. (Arch. Int. Pharmacodyn. 229, p. 327-336 (1977)). Male CDl mice which weighed about 20-25 g and had not fasted were used. The test consisted of inducing a state of depression in the animal which was subjected to forced swimming in a glass cylinder from which it could not escape. After a short period of vigorous activity the mouse adopted a characteristic posture of immobility which was easily identifiable; this immobility is reduced by antidepressant drugs. 1 l glass beakers, filled to 700 ml with water at a temperature of 25° C. were used for the test. The mice, 8 per group, were treated intraperitoneally with the drug under test, 30 minutes before the test. At time 0, each animal was immersed in a beaker and, after one minute during which all moved about swimming vigorously in order to escape, regardless of treatment, the observer, who was unaware of the treatment, assigned the following points: 0=animal immobile 1=minimum movement to remain afloat 2=vigorous swimming The greater the antidepressant activity of the drug, the more the animals will move about in order to try to escape from the water. The points were assigned every 15 sec for a total period of 5 min with a total of 20 observations. The antidepressant activity was determined with the use of various doses of the compound by the regression method as the ED50, that is, the dose in mg/kg of the compound which could antagonise the animal's immobility time by 50%.

[2] = molecular target: excitor amino-acid receptors of cortical membranes ("forebrain") of rats; assay: Inhibition of the specific binding of [3H]-glutamate to rat forebrain membranes; conditions: rat forebrain membranes, 20 min, 37° C., pH 7.1
From the text: 6) Studies on binding to rat "forebrain" membranes
L-glutamate recognizes all three receptor subtypes indicated above, al though not selectively. It is therefore desirable to evaluate the capacity of each of the compounds of the invention to interact with the excitor amino-acid receptors of the CNS.
"Forebrain", that is, the cerebral cortex and the hippocampus, were selected as the receptor tissue and ^3 H-L-glutamate as the ligand for marking this heterogenous receptor population.
Rat cerebral tissue (forebrain without striated tissue) was therefore homogeneised cold in tris buffer at pH 7.4. After washing and centrifuging, the final pellet was resuspended in 50 volumes of tris HCl binding buffer at 7.1. 0.5 ml of receptor membrane thus obtained were then incubated, together with the radioactive tracer and the compounds under test, for 20 min at 37° C. The reaction was terminated by separating the bound radio-ligand from the free radio-ligand by filteration on glass-fibre filters which, after washing, were counted in a liquid scintillator (a β-counter) thus determining the radioactivity associated with the pellet. The specific binding was determined as the difference between the binding in the absence and in the presence of cold 3.6 mM L-glutamate.

[3] = Antiamnesic activity in the mouse (step-down passive avoidance, amnesia induced by ECS); assay type: in vivo, mouse (CD1 male); conditions: po, mouse, retest 24 h after training, read-out: Reversal of the amnesia (% vs controls), as the increase in the Step Down Latency; for change in vivo at 3 mg/kg: 3 mg/kg OS; for change in vivo at 30 mg/kg: 30 mg/kg OS; for change in vivo at 0.1 mg/kg: 0.1 mg/kg OS; for change in vivo at 1 mg/kg: 1 mg/kg OS; for change in vivo at 10 mg/kg: 10 mg/kg OS
From the text: 1) Antiamnesic activity in the mouse (step-down passive avoidance)
An electroconvulsive shock (ECS) produces retrograde amnesia in the test animal if applied immediately after the training received, for example, a harmful stimulus of a suitable intensity.
The object of the experiment was to study the effects of the compounds of the invention in antagonizing the amnesic effect of an ECS on the short-term memory consolidation process.
CD1 male mice which weighed about 30-35 g, and had not fasted were used. The equipment used was a rectangular plexiglass cage (21×21×40cm) with an electrifiable grid floor and a wooden cube (4×4×4 cm) fixed in the centre of the cage. The animals were treated orally with the product under test 60 minutes before the training.
The mouse was placed delicately on the wooden cube and the time it took to descend to the grid floor (SDL=step-down latency) was measured. When all four of the animal's paws were resting on the floor the continuous 0.2 mA shock started and the time taken by The mouse to remount the wooden cube (EL=escape latency) was measured.
The animals with an SDL of between 3 and 30 sec and with an EL of between 3 and 60 sec were used for retesting.
Immediately afterwards, a transcorneal ECS was applied with the use of the following parameters: amperage 15 mA, frequency 50 Hz, duration of the train of pulses 0.4 sec. duration of each individual pulse 1 msec., interval between pulses 20 msec. As well as the groups treated with ECS, a control group without ECS and a control group with ECS were used.
The retest was carried out after 24 h.
The results are expressed as the percentage variation of the SDL of the treated groups in comparison with the control group by means of this formula: [formula]

[4] = 5 min, 5 minutes, read-out: Decrease in immobility (as %) vs the controls

SMILES: CN(C)CCC=C1c2ccccc2CCc2ccccc21 [Amitriptyline, reference compound]
inhibition in vivo at 1 mg/kg ([1]; 5 min, 1 mg/kg IP, 5 minutes, read-out: Decrease in immobility (as %) vs the controls): 19% | inhibition in vivo at 3 mg/kg [1, 4]: 20% | inhibition in vivo at 10 mg/kg [1, 4]: 88% | ED50 [1]: 4.1 mg/kg

SMILES: CCCCCCNC(=O)[C@@H](N)CCC(=O)O [Compound 3]
IC50 [2]: 70 µM

SMILES: CC(C)(C)CCNC(=O)[C@H](N)CCC(=O)O [Compound 6]
IC50 [2]: > 1000 µM

SMILES: CC(C)(C)CCCNC(=O)[C@@H](N)CCC(=O)O [Compound 7]
inhibition in vivo at 3 mg/kg [1, 4]: 19% | inhibition in vivo at 10 mg/kg [1, 4]: 51% | inhibition in vivo at 30 mg/kg ([1]; 5 min, 30 mg/kg IP, 5 minutes, read-out: Decrease in immobility (as %) vs the controls): 67% | ED50 [1]: 12.3 mg/kg | IC50 [2]: 194 µM

SMILES: N[C@@H](CCC(=O)O)C(=O)NC1CC2CCC1C2 (stereo partly drawn) [Compound 10]
change in vivo at 0.1 mg/kg [3]: 0% | change in vivo at 1 mg/kg [3]: 26% | change in vivo at 3 mg/kg [3]: 23% | IC50 [2]: 16 µM

SMILES: C[C@@H](NC(=O)[C@@H](N)CCC(=O)O)C1CCCCC1 [Compound 13]
IC50 [2]: 54 µM

SMILES: N[C@@H](CCC(=O)O)C(=O)NC1CCCCCCCCC1 [Compound 22]
IC50 [2]: 64 µM

SMILES: CCCCCN(CCCCC)C(=O)[C@@H](N)CCC(=O)O [Compound 28]
change in vivo at 0.1 mg/kg [3]: 0% | change in vivo at 1 mg/kg [3]: 0% | change in vivo at 10 mg/kg [3]: 8%

The remaining compounds from weak to strong by IC50 [2], led by results:

IC50 [2]: 970 µM
SMILES: CCCN(CCC)C(=O)[C@@H](N)CCC(=O)O [Compound 27]

IC50 [2]: 169 µM
SMILES: C[C@H](NC(=O)[C@@H](N)CCC(=O)O)C1CCCCC1 [Compound 12]

IC50 [2]: 74.6 µM
SMILES: CCCCCNC(=O)[C@@H](N)CCC(=O)O [Compound 2]
change in vivo at 0.3 mg/kg ([3]; 0.3 mg/kg OS): 0% | change in vivo at 3 mg/kg [3]: 0% | change in vivo at 30 mg/kg [3]: 0%

IC50 [2]: 72 µM
SMILES: CCCCNC(=O)[C@@H](N)CCC(=O)O [Compound 1]

IC50 [2]: 56.4 µM
SMILES: CCCCC(CC)CCNC(=O)[C@@H](N)CCC(=O)O (stereo partly drawn) [Compound 8]

IC50 [2]: 21.2 µM
SMILES: N[C@@H](CCC(=O)O)C(=O)NC1CCCC1 [Compound 18]

IC50 [2]: 17.2 µM
SMILES: N[C@@H](CCC(=O)O)C(=O)NC1CCCCC1 [Compound 19]
change in vivo at 3 mg/kg [3]: 10% | change in vivo at 10 mg/kg [3]: 22% | change in vivo at 30 mg/kg [3]: 18%
